In patent US6521619B2, “Aryl phenylcyclopropyl sulfide derivatives and their use as cell adhesion inhibiting anti-inflammatory and immune suppressive agents” (Icos Corporation, priority 2000, dated 2003):
Where two headings read alike, the source gives them in different places. One block for each compound: values may come before it.

Key:
[1] = biological target: T1, ICAM-1/LFA-1 interaction (recombinant LFA-1, biotinylated recombinant ICAM-1/Ig) (Homo sapiens, UniProt P20701); assay: ICAM-1/LFA-1 Biochemical Interaction Assay (46A); type: binding
T1 construct: Recombinant LFA-1 (100 mL of 0.7 mg/ml, ICOS Corporation) in D-PBS is then added to each well
T1 sequence (P20701 26-1170): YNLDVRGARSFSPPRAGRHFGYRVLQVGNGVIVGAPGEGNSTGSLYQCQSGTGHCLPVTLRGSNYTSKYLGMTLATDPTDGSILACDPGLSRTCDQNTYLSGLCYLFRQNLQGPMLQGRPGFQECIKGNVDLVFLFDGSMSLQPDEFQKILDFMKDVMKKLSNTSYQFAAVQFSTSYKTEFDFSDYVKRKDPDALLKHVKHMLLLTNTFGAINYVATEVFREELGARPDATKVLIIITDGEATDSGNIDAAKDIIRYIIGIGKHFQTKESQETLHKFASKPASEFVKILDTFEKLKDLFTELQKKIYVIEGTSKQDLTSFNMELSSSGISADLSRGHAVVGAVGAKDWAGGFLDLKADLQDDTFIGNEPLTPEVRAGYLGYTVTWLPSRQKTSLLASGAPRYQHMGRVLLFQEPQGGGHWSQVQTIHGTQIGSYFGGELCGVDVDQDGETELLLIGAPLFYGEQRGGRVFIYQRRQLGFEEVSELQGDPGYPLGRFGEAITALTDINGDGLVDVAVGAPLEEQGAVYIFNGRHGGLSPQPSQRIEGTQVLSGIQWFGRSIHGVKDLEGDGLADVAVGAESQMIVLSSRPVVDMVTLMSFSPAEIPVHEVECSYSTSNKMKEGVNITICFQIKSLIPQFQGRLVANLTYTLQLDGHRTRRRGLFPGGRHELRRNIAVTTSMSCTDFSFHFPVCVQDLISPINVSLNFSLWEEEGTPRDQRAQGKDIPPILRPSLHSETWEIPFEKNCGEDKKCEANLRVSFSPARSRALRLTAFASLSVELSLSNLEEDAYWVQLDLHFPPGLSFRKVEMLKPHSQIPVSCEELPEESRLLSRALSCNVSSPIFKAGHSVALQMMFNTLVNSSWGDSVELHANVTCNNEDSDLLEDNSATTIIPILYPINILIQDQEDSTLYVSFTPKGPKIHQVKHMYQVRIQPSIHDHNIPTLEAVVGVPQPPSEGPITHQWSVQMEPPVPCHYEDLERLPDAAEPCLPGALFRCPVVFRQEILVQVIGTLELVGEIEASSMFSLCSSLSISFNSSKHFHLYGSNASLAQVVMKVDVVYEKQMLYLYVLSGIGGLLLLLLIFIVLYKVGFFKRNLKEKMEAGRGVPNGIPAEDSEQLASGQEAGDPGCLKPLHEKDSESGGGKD
T1 sequence (P05107 23-769 partner): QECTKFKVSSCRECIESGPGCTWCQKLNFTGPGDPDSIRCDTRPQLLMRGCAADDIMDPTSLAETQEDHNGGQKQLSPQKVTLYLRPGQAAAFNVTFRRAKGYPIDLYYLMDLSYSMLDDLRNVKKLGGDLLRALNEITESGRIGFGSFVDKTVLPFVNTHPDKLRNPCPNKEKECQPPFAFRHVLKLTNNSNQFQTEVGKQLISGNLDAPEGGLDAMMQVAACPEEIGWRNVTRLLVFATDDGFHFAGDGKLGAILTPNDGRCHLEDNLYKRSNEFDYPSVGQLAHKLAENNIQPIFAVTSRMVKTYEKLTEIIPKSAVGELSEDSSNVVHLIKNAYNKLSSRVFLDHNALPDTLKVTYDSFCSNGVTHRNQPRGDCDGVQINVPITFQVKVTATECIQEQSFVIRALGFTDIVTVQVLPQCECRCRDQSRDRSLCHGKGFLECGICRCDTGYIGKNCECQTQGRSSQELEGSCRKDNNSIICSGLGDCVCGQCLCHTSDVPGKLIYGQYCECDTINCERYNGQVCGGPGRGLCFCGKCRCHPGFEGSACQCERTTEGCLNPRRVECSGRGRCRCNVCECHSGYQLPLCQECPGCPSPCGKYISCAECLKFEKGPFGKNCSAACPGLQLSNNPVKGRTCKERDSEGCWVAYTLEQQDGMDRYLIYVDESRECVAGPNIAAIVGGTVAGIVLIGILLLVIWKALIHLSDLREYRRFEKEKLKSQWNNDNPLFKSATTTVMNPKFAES
Procedure: Compounds that antagonize the interaction between ICAM-1 and LFA-1 can be identified, and their activities quantitated, using both biochemical and cell-based adhesion assays. A primary biochemical assay, described below as assay 46A, was utilized to measure the ability of the present compounds to block the interaction between the integrin LFA-1 and its adhesion partner ICAM-1.
46A. ICAM-1/LFA-1 Biochemical Interaction Assay
In the biochemical assay, 100 mL of anti-LFA-1 antibody (ICOS Corporation) at a concentration of 5 mg/ml in Dulbecco's phosphate-buffered saline (D-PBS) is used to coat wells of a 96-well microtiter plate overnight at 4° C. The wells are then washed twice with wash buffer (D-PBS w/o Ca^++ or Mg^++, 0.05% Tween 20) and blocked by addition of 200 mL of D-PBS, 5% fish skin gelatin. Recombinant LFA-1 (100 mL of 0.7 mg/ml, ICOS Corporation) in D-PBS is then added to each well. Incubation continues for 1 hour at room temperature and the wells are washed twice with wash buffer. Serial dilutions of compounds being assayed as ICAM-1/LFA-1 antagonists, prepared as 10 mM stock solutions in dimethyl sulfoxide (DMSO), are diluted in D-PBS, 2 mM MgCl2, 1% fish skin gelatin and 50 mL of each dilution added to duplicate wells. This is followed by addition of […] of 0.8 mg/ml biotinylated recombinant ICAM-1/Ig (ICOS Corporation) to the wells and the plates are incubated at room temperature for 1 hour The wells are then washed twice with wash buffer and 100 mL of Europium-labeled Streptavidin (Wallac Oy) diluted 1:100 in Delfia assay buffer (Wallac Oy) are added to the wells. Incubation proceeds for 1 hour at room temperature. […] Incubation proceeds for 5 minutes with constant mixing.
where “background” refers to wells that are not coated with anti-LFA-1 antibody.

[2] = tested on: JY-8 cells (expressing LFA-1) adhering to immobilized ICAM-1; assay: ICAM-1/JY-8 Cell Adhesion Assay (46B); type: cell-based, human; settings: Homo sapiens, JY-8 cell adhesion to ICAM-1; for inhibition at 2 µM: @ 2 μM compound (cell)
Procedure: Biologically relevant activity of the compounds in this invention was confirmed using a cell-based adhesion assay, (described below as assay 46B) which measured the ability of the present compounds to block the adherence of JY-8 cells (a human EBV-transformed B cell line expressing LFA-1 on its surface) to immobilized ICAM-1.
46B. ICAM-1 /JY-8 Cell Adhesion Assay
For measurement of inhibitory activity in the cell-based adhesion assay, 96-well microtiter plates are coated with 70 μL of recombinant ICAM-1/g (ICOS Corporation) at a concentration of 5 μg/mL in D-PBS w/o Ca^++ or Mg^++ overnight at 4° C. The wells are then washed twice with D-PBS and blocked by addition of 200 μL of D-PBS, 5% fish skin gelatin by incubation for 1 hour at room temperature. Fluorescent tagged JY-8 cells (a human EBV-transformed B cell line expressing LFA-1 on its surface; 50 μL at 2×10^6 cells/ml in RPMI 1640 (standard cell culture medium)/1% fetal bovine serum) are added to the wells. For fluorescent labeling of JY-8 cells, 5×10^6 cells washed once in RPMI 1640 are resuspended in 1 mL of RPMI 1640 containing 2 μM Calceiun AM (MolecularProbes), are incubated at 37° C for 30 minutes and washed once with RPMI-1640/1% fetal bovine serum. Dilutions of compounds to be assayed for ICAM-1/LFA-1 antagonistic activity are prepared in RPMI-1640/1% fetal bovine serum from 10 mM stock solutions in DMSO and 50 μL are added to duplicate wells. Microtiter plates are incubated for 45 minutes at room temperature and the wells are washed gently once with RPMI-1640/1% fetal bovine serum. Fluorescent intensity is measured in a fluorescent plate reader with an excitation wavelength at 485 nm and an emission wavelength at 530 nm. The percent inhibition of a candidate compound at a given concentration is calculated using the following equation: [formula]
and these concentration/inhibition data are used to generate dose response curves, from which IC50 values are derived.

[3] = @ 2 μM compound, read-out: % inhibition

- inhibition at 4 µM ([1]; @ 4 μM compound): 44%
Compound: O=C(NCCCN1CCCC1=O)C1CC1c1ccc(Sc2cccc(N3CCOCC3)c2)c(C(F)(F)F)c1 (racemic) [Example 11, (±)-(3-Morpholin-1-ylphenyl)[2-trifluoromethyl-4-(trans-(2-((3-(1-pyrrolidin-2-onyl)-prop-1-ylamino)carbonyl)cycloprop-1-yl)phenyl]sulfide]

Compound: (±)-(2-Bromophenyl)[2-trifluoromethyl-4-(trans-(2-((3-(1-pyrrolidin-2-onyl)-prop-1-ylamino)carbonyl)cycloprop-1-yl)phenyl]sulfide [Example 1]
- % inhibition ([1]; @ 2 μM compound): 96% @ 2 μM

- inhibition at 2 µM ([1]; @ 2 μM compound): 93%
Compound: O=C(O)C1CCCN(c2ccccc2Sc2ccc(C3CC3C(=O)NCCCN3CCCC3=O)cc2C(F)(F)F)C1 (mixture of isomers) [Example 6, (±)-(2-(2-carboxyethyl)phenyl)[2-trifluoromethyl-4-(trans-(2-((3-(1-pyrrolidin-2-onyl)-prop-1-ylamino)carbonyl)cycloprop-1-yl)phenyl]sulfide]

- % inhibition ([1]; @ 2 μM compound, 2 µM): 94% @ 2 μM
Compound: O=C(NCCCN1CCCC1=O)[C@@H]1C[C@H]1c1ccc(Sc2ccccc2Br)c(C(F)(F)F)c1 (relative stereo) [Example 5]

- inhibition at 2 µM [1, 3]: 94%
Compound: CC(=O)N1CCN(C(=O)C2CC2c2ccc(Sc3ccccc3C(C)C)c(Cl)c2Cl)CC1 (racemic) [Example 21, (±)-(2-Isopropylphenyl)[2,3-dichloro-4-(trans-(2-(4-acetylpiperazin-1-yl)carbonyl)cycloprop-1-yl)phenyl]sulfide]
- inhibition at 2 µM [2]: 88%

- inhibition at 4 µM ([1]; @ 4 μM compound): 93%
Compound: COc1ccccc1Sc1ccc(C2CC2C(=O)NCC(=O)O)c(Cl)c1Cl (mixture of isomers) [Example 12]

- inhibition at 4 µM ([1]; @ 4 μM compound): 92%
Compound: O=C(NCCCN1CCCC1=O)C1CC1c1ccc(Sc2ccccc2Br)c(C(F)(F)F)c1 (racemic) [Example 1, (±)-(2-Bromophenyl)[2-trifluoromethyl-4-(trans-(2-((3-(1-pyrrolidin-2-onyl)-prop-1-ylamino)carbonyl)cycloprop-1-yl)phenyl]sulfide]

- % inhibition ([1]; @ 4 μM compound): 96% @ 4 μM
Compound: (±)-(2-Isopropylphenyl)[2,3-dichloro-4-(trans-2-(cyclobutylaminocarbonyl)cycloprop-1-yl)phenyl]sulfide [Example 24]

Compound: CC(C)c1ccccc1Sc1ccc(C2CC2C(=O)N2CCCC(C(=O)O)C2)c(Cl)c1Cl (racemic) [Example 3, (±)-(2-Isopropylphenyl)[2,3-dichloro-4-(trans-(2-(3-carboxypiperidine))carbonyl)cycloprop-1-yl)phenyl]sulfide]
- inhibition at 2 µM [2]: 90%

- inhibition at 2 µM [1, 3]: 96%
Compound: CC(C)c1ccccc1Sc1ccc(C2CC2C(=O)N2CCOCC2)c(Cl)c1Cl (racemic) [Example 20, (±)-(2-Isopropylphenyl)[2,3-dichloro-4-(trans-(2-(morpholin-1-yl)carbonyl)cycloprop-1-yl)phenyl]sulfide]

- inhibition at 4 µM ([1]; @ 4 μM compound): 91%
Compound: O=C(O)C1CC1c1ccc(Sc2ccccc2N2CCOCC2)c(Cl)c1Cl (racemic) [Example 12, (±)-(2-Morpholin-1-ylphenyl)[2,3-dichloro-4-(trans-(2-carboxycycloprop-1-yl)phenyl]sulfide]

Compound: CC(C)c1ccccc1Sc1ccc(C2CC2C(=O)NCCCC(=O)O)c(Cl)c1Cl (racemic) [Example 17, (±)-(2-Isopropylphenyl)[2,3-dichloro-4-(trans-(2-(3-carboxypropylamino)carbonyl)cycloprop-1-yl)phenyl]sulfide]
- inhibition at 2 µM [2]: 86%

Compound: O=C(NCCCN1CCCC1=O)C1CC1c1ccc(Sc2ccccc2N2CCOCC2)c(C(F)(F)F)c1 (racemic) [Example 7, (±)-(2-Morpholin-1-ylphenyl)[2-trifluoromethyl-4-(trans-(2-((3-(1-pyrrolidin-2-onyl)-prop-1-ylamino)carbonyl)cycloprop-1-yl)phenyl]sulfide]
- inhibition at 1 µM ([2]; @ 1 μM compound (cell)): 84%

Compound: O=C(NCCCN1CCCC1=O)C1CC1c1ccc(Sc2ccccc2N2CCCC2)c(C(F)(F)F)c1 (racemic) [Example 10, (±)-(2-Pyrrolidin-1-ylphenyl)[2-trifluoromethyl-4-(trans-(2-((3-(1-pyrrolidin-2-onyl)-prop-1-ylamino)carbonyl)cycloprop-1-yl)phenyl]sulfide]
- inhibition at 4 µM ([2]; @ 4 μM compound): 72%

- inhibition at 4 µM ([1]; @ 4 μM compound): 88%
Compound: O=C(O)C1CC1c1ccc(Sc2ccccc2Br)c(Cl)c1Cl (racemic) [Example 15, (±)-(2-Bromophenyl)[2,3-dichloro-4-(trans-(2-carboxycycloprop-1-yl)phenyl]sulfide]

- inhibition at 4 µM ([1]; @ 4 μM compound): 95%
Compound: COc1ccccc1Sc1ccc(C2CC2C(=O)NCCC(=O)O)c(Cl)c1Cl (mixture of isomers) [Example 13]

- inhibition at 2 µM [1, 3]: 95%
Compound: CC(C)c1ccccc1Sc1ccc(C2CC2C(=O)N2CCC2)c(Cl)c1Cl (racemic) [Example 25, (±)-(2-Isopropylphenyl)[2,3-dichloro-4-(trans-(2-(azetidin-1-yl)carbonyl)cycloprop-1-yl)phenyl]sulfide]

- % inhibition ([1]; @ 2 μM compound, 2 µM): 81% @ 2 μM
Compound: O=C(NCCCN1CCCC1=O)[C@@H]1C[C@H]1c1ccc(Sc2ccccc2Br)c(C(F)(F)F)c1 (relative stereo) [Example 4]

- inhibition at 2 µM [1, 3]: 94%
Compound: CC(C)c1ccccc1Sc1ccc([C@@H]2C[C@H]2C(=O)NC2CCC2)c(Cl)c1Cl (racemic) [Example 24, (±)-(2-Isopropylphenyl)[2,3-dichloro-4-(trans-2-(cyclobutylaminocarbonyl)cycloprop-1-yl)phenyl]sulfide]

Compound: CC(C)c1ccccc1Sc1ccc(C2CC2C(=O)NCCCN2CCCC2=O)c(Cl)c1Cl (racemic) [Example 22, (±)-(2-Isopropylphenyl)[2,3-dichloro-4-(trans-(2-((3-(1-pyrrolidin-2-onyl)-prop-1-ylamino)carbonyl)cycloprop-1-yl)phenyl]sulfide]
- inhibition at 2 µM [2]: 92%

- % inhibition ([1]; @ 4 μM compound): 96% @ 4 μM
Compound: (±)-(2-Isopropylphenyl)[2,3-dichloro-4-(trans-(2-(morpholin-1-yl)carbonyl)cycloprop-1-yl)phenyl]sulfide [Example 20]

- % inhibition ([1]; @ 4 μM compound): 96% @ 4 μM
Compound: CC(C)c1ccccc1Sc1ccc([C@@H]2C[C@H]2C(=O)N2CCCCC2C(=O)O)c(Cl)c1Cl (mixture of isomers) [Example 19, (±)-(2-Isopropylphenyl)[2,3-dichloro-4-(trans-(2-(2-carboxypiperidin-1-yl)carbonyl)cycloprop-1-yl)phenyl]sulfide]

- inhibition at 2 µM [1, 3]: 95%
Compound: CC(C)c1ccccc1Sc1ccc(C2CC2C(=O)NCC(=O)O)c(Cl)c1Cl (racemic) [Example 2, (±)-(2-Isopropylphenyl)[2,3-dichloro-4-(trans-(carboxymethylamino)carbonyl)cycloprop-1-yl)phenyl]sulfide]

- % inhibition ([1]; @ 4 μM compound): 94% @ 4 μM
Compound: (±)-(2-Isopropylphenyl)[2,3-dichloro-4-(trans-(2-(4-carboxypiperidin-1-yl)carbonyl)cycloprop-1-yl)phenyl]sulfide [Example 18]

- % inhibition ([1]; @ 4 μM compound): 96% @ 4 μM
Compound: (±)-(2-Isopropylphenyl)[2,3-dichloro-4-(trans-(2-(4-acetylpiperazin-1-yl)carbonyl)cycloprop-1-yl)phenyl]sulfide [Example 21]
